Test results taken from PMC9106665 (Communications Biology, 2022).
Positions count from the first letter of the chain named. In brackets after ≈: the same amount, converted by molar mass. Several values for one entry are separate records, joined by “and”; a condition that tells them apart may be missing. Equal values may be shown once. Read-outs that look alike come from different tables or passages of the source.

Legend:
DfrA5 [1] = target: T1, DfrA5 (Escherichia coli, UniProt P11731); test: biochemical; format: binding, E. coli
DfrA1 [2] = target: T2, DfrA1 (Escherichia coli, UniProt P00382); test: biochemical; format: binding, E. coli
T2 construct: dfrA1 gene (UniProtKB:A4GRC7) were synthesized and cloned in pET-41a (+) vector; made in house; host or cells: E. coli BL21(DE3)
T2 sequence (P00382 1-157): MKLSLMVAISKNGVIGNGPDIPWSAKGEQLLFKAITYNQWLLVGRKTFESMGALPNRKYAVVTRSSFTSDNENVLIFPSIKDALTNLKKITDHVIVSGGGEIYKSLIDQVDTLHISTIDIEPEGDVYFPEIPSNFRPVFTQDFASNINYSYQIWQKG

DfrA5 [3] = format: biochemical, E. coli
Description: (§1) using a nonlinear regression method in GraphPad Prism 9.2.0 software. To determine the turnover number (kcat) using the same model, the enzyme concentration (based on the protein concentration determined by Bradford assay) was constrained to a constant value and analyzed by the following equation (Eq. 3):3 Y=Et×kcat×X/(Km+X)

DfrA1 [4] = format: biochemical, E. coli
Description: as §1

EcDHFR [5] = target: T3, EcDHFR (Escherichia coli, UniProt P0ABQ4); format: binding
T3 construct: E. coli DHFR gene (UniProtKB:P0ABQ4) and dfrA1 gene (UniProtKB:A4GRC7) were synthesized and cloned in pET-41a (+) vector; made in house; host or cells: E. coli BL21(DE3)
Description: (§2) In all, 200 µg of purified enzyme was preincubated for 18 h without and with a 10× molar excess of the ligand(s) (NADPH, TMP or PLA) in 20 mM Hepes 7.5, 100 mM KCl, 5% glycerol, ±2.0% DMSO and 2 mM DTT buffer. […] Changes in intrinsic fluorescence intensity (measured ratio of absorbance at 350 nm over 330 nm) from tryptophan residues were used to calculate derivatives using the evaluation features provided by the Tycho instrument.

EcDHFR D27E/L28Q [6] = target: T4, EcDHFR D27E/L28Q (Escherichia coli, UniProt P0ABQ4, D27E/L28Q); test: Steady-state kinetic measurements; format: biochemical; conditions: varied substrate 1 to 200 µM, 25 °C
T4 construct: using E. coli DHFR template previously synthesized by GeneScript; made in house; host or cells: E. coli BL21(DE3)
T4 sequence (P0ABQ4 1-159 D27E/L28Q): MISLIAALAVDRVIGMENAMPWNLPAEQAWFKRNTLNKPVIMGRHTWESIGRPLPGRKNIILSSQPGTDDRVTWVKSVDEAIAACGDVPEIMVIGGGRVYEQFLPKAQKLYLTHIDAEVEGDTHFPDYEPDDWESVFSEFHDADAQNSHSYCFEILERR
Description: as §1

EcDHFR L28Q [7] = target: T5, EcDHFR L28Q (Escherichia coli, UniProt P0ABQ4, L28Q); test: Steady-state kinetic measurements; format: biochemical; conditions: varied substrate 1 to 200 µM, 25 °C
T5 construct: using E. coli DHFR template previously synthesized by GeneScript; made in house; host or cells: E. coli BL21(DE3)
T5 sequence (P0ABQ4 1-159 L28Q): T4 sequence (P0ABQ4 1-159 D27E/L28Q) with E27D
Description: as §1

EcDHFR D27E [8] = target: T6, EcDHFR D27E (Escherichia coli, UniProt P0ABQ4, D27E); test: Steady-state kinetic measurements; format: biochemical; conditions: varied substrate 1 to 200 µM, 25 °C
T6 construct: using E. coli DHFR template previously synthesized by GeneScript; made in house; host or cells: E. coli BL21(DE3)
T6 sequence (P0ABQ4 1-159 D27E): T4 sequence (P0ABQ4 1-159 D27E/L28Q) with Q28L
Description: as §1

DfrA1 [9] = target: T2, DfrA1; format: binding, E. coli
Description: as §2

EcDHFR [10] = target: T3, EcDHFR; test: biochemical; format: binding
DfrA5 [11] = target: T1, DfrA5; format: binding, E. coli; design: E. coli dfrA5 gene (UniProtKB:A0A4Y6L037) was synthesized and cloned in pET-24a (+) vector with the same restriction sites; 6xHis tag (C); made in house; host or cells: E. coli BL21(DE3)
Description: as §2, with “instrument. The inflection temperature (Ti) as a marker of protein structural integrity was determined by the first derivative of the signal (ratio of 350 nm/330 nm).” for “instrument.”

DfrA1 and DfrA5 = format: biochemical, E. coli; conditions: range over DfrA1 and DfrA5
Description: (§3) The assay was performed at room temperature using the Shimadzu UV/visible spectrophotometer. A standard reaction buffer contained 20 mM TES, pH 7.0, 50 mM KCl, 10 mM β-mercapthoethanol, 0.5 mM EDTA, and 1 mg/ml BSA. […] All measurements were performed in triplicate, from at least two independent experiments.

DfrA5 [12] = target: T1, DfrA5; test: biochemical; design: species or system E. coli
Description: as §3

E. coli DHFR (EcDHFR) = target: T7, E. coli DHFR (EcDHFR) (Escherichia coli, UniProt P0ABQ4); test: biochemical
T7 construct: E. coli DHFR gene (UniProtKB:P0ABQ4) and dfrA1 gene (UniProtKB:A4GRC7) were synthesized and cloned in pET-41a (+) vector; made in house; host or cells: E. coli BL21(DE3)
Description: as §3

EcDHFR D27E/L28Q [13] = target: T4, EcDHFR D27E/L28Q; test: Enzyme inhibition assay (NADPH oxidation, 340 nm); format: biochemical
Description: as §3

EcDHFR L28Q [14] = target: T5, EcDHFR L28Q; test: Enzyme inhibition assay (NADPH oxidation, 340 nm); format: biochemical
Description: as §3

EcDHFR D27E [15] = target: T6, EcDHFR D27E; test: Enzyme inhibition assay (NADPH oxidation, 340 nm); format: biochemical
Description: as §3

[16] = test system: E. coli JW0451 acrB mutant strain; test: microbe, parasite or virus in culture; format: cell-based; conditions: for MIC: w/o SMX, 80% inhibition of growth, 18 to 20 hours, 37°C
Description: (§4) Preparation, handling of cultures and the antibiotic susceptibility testing was performed according to CLSI guidelines. […] The compounds at the highest concentrations alone and paired with Sulfamethoxazole (1:19 w/w ratio) were then added to the first well before being serially diluted (2-fold) throughout the plate, leaving the last well with broth only (negative growth control). Next, 50 μl of the inoculum was added to each well.

E. coli BW25113 = test: microbe, parasite or virus in culture; format: cell-based; conditions: for MIC: Escherichia coli, 80% inhibition of growth
Description: as §4

[17] = test system: E. coli BL21(DE3) strain overexpressing DfrA1; test: Antibacterial activity (MIC); format: cell-based; conditions: Escherichia coli
[18] = test system: E. coli BL21(DE3) strain overexpressing DfrA5; test: Antibacterial activity (MIC); format: cell-based; conditions: Escherichia coli
[19] = remark limiting MST studies
[20] = test system: E. coli BL21(DE3) strain overexpressing EcDHFR wt; test: Antibacterial activity (MIC); format: cell-based; conditions: Escherichia coli, w/o SMX
[21] = binary complex, 10× molar excess of ligand

Structure (SMILES): NC(=O)C1=CN([C@@H]2O[C@H](COP(=O)(O)OP(=O)(O)OC[C@H]3O[C@@H](n4cnc5c(N)ncnc54)[C@H](OP(=O)(O)O)[C@@H]3O)[C@@H](O)[C@H]2O)C=CC1 [NADPH]
- Kd (DfrA5 [1]; DfrA5:TMP, titrant NADPH): 1540 ± 380 nM
- Kd (DfrA5 [1]; DfrA5:UCP1228 (100 µM UCP1228), titrant NADPH): 459 ± 157 nM
- Kd (DfrA5 [1]; DfrA5 apo): 7470 ± 1670 nM
- Kd (DfrA5 [1]; DfrA5 apo form (Fig. S8)): 6840 nM
- Kd (DfrA5 [1]; DfrA5 apo, series NADPH KD ± UCP1228): 6840 ± 1610 nM
- Kd (DfrA5 [1]; DfrA5 preincubated with 100 µM UCP1228, titrant NADPH (Fig. S8)): 450 nM
- Fold change in KD (DfrA5 [1]; NADPH KD ± Trimethoprim): 5 and 4.9 ± 1.6
- Fold change in KD (DfrA5 [1]; NADPH KD ± UCP1228): 15 and 14.9 ± 6.2
- Kd (DfrA1 [2]; KD, DfrA1:TMP, titrant NADPH): 430 ± 95 nM
- Kd (DfrA1 [2]; KD, DfrA1:UCP1228 (100 µM UCP1228), titrant NADPH): 289 ± 51 nM
- Kd (DfrA1 [2]; KD, DfrA1 apo): 1650 ± 230 nM
- Kd (DfrA1 [2]; KD, DfrA1 apo, series NADPH KD ± UCP1228): 1040 ± 106 nM
- Kd (DfrA1 [2]; Kd, DfrA1 apo form (Fig. S8)): 1040 ± 110 nM
- Kd (DfrA1 [2]; Kd, DfrA1 preincubated with 100 µM UCP1228, titrant NADPH (Fig. S8)): 290 nM
- Fold change in KD (DfrA1 [2]; NADPH KD ± Trimethoprim): 4 and 3.8 ± 1.0
- Fold change in KD (DfrA1 [2]; NADPH KD ± UCP1228): 4 and 3.6 ± 0.7
- fold increase in KM compared to EcDHFR (DfrA5 [3]): 3 fold
- fold increase in KM compared to EcDHFR (DfrA1 [4]): 2 fold
- Ti 1 (EcDHFR [5]; [21]): 53.8 ± 0.4 °C
- Ti 2 (EcDHFR [5]; [21]): 63.1 ± 1.3 °C
- Δ1 (Ti shift vs apo) (EcDHFR [5]; [21]): 4.2 °C
- Δ2 (Ti shift vs apo) (EcDHFR [5]; [21]): 2.9 °C
- Km (EcDHFR D27E/L28Q [6]): 11.1 ± 1.6 µM
- kcat (EcDHFR D27E/L28Q [6]): 3.8 ± 0.2 s⁻¹
- Km (EcDHFR L28Q [7]): 7.6 ± 1.3 µM
- kcat (EcDHFR L28Q [7]): 4.4 ± 0.2 s⁻¹
- Km (EcDHFR D27E [8]): 5.8 ± 0.9 µM
- kcat (EcDHFR D27E [8]): 5.9 ± 0.3 s⁻¹
- Ti (DfrA1 [9]; [21]): 56.5 ± 0.8 °C
- Δ (Ti shift vs apo) (DfrA1 [9]; [21]): 6.7 °C
- Kd (EcDHFR [10]; EcDHFR apo): 771 ± 145 nM
- Kd (EcDHFR [10]; EcDHFR apo form, Fig. S5a titration): 661 nM
- Kd (EcDHFR [10]; EcDHFR:TMP (preincubated with 1 µM TMP), titrant NADPH): 8 nM and 8.1 nM
- Fold change in KD (EcDHFR [10]; NADPH KD ± Trimethoprim): 95.2 ± 50.3
- Ti (DfrA5 [11]; [21]): 69.2 ± 0.5 °C
- Δ (Ti shift vs apo) (DfrA5 [11]; [21]): 2.9 °C

Structure (SMILES): CCc1nc(N)nc(N)c1C#CC(C)c1cc(-c2ccc(C(N)=O)cc2)ccc1Cl (centres unmarked) [UCP1228]
- fold loss of activity against DfrA1 and DfrA5 compared to EcDHFR (DfrA1 and DfrA5): 10–14 fold
- Ki (DfrA5 [12]): 20.1 ± 0.39 nM
- Ti 1 (EcDHFR [5]; [21]): 65.5 ± 4.6 °C
- Ti 2 (EcDHFR [5]; [21]): 76.5 ± 2.5 °C
- Δ1 (Ti shift vs apo) (EcDHFR [5]; [21]): 15.9 °C
- Δ2 (Ti shift vs apo) (EcDHFR [5]; [21]): 16.3 °C
- Ti 1 (EcDHFR [5]; ternary complex, +NADPH): 64.3 ± 0.1 °C
- Ti 2 (EcDHFR [5]; ternary complex, +NADPH): 75.7 ± 1.6 °C
- Δ1 (Ti shift vs apo) (EcDHFR [5]; ternary complex, +NADPH): 14.7 °C
- Δ2 (Ti shift vs apo) (EcDHFR [5]; ternary complex, +NADPH): 15.5 °C
- Ki (E. coli DHFR (EcDHFR)): 2.73 ± 0.09 nM
- Ki (EcDHFR D27E/L28Q [13]): 189 ± 5.36 nM
- fold loss in affinities relative to EcDHFR (EcDHFR D27E/L28Q [13]; combinatorial mutant D27E/L28Q): 69 fold
- Ki (EcDHFR L28Q [14]): 10.5 ± 0.69 nM
- Ki (EcDHFR D27E [15]): 11.8 ± 0.4 nM
- fold increase in Ki over EcDHFR (EcDHFR D27E [15]; D27E substitution): 4 fold
- Ti (DfrA1 [9]; [21]): 55.4 ± 1.7 °C
- Δ (Ti shift vs apo) (DfrA1 [9]; [21]): 5.6 °C
- Ti (DfrA1 [9]; ternary complex, +NADPH): 66.5 ± 3.3 °C
- Δ (Ti shift vs apo) (DfrA1 [9]; ternary complex, +NADPH): 16.7 °C
- Fold difference in MIC ([16]; BW25113 w/o SMX vs JW0451 w/o SMX): 8
- MIC ([16]; Escherichia coli): 1.25 µg/mL (≈ 2.98 µM)
- MIC [16]: 0.625 µg/mL (≈ 1.49 µM)
- Fold difference in MIC (E. coli BW25113; BW25113 w/o SMX vs w/ SMX): 16
- MIC (E. coli BW25113; BW25113, w/ SMX (1:19)): 0.625 µg/mL (≈ 1.49 µM)
- MIC (E. coli BW25113; BW25113, w/o SMX, 18 to 20 hours, 37°C): 10 µg/mL (≈ 23.8 µM)
- MIC ([17]; w/ SMX (1:19)): 20 µg/mL (≈ 47.6 µM)
- MIC ([17]; w/o SMX): > 20 µg/mL
- MIC ([18]; w/ SMX (1:19)): 20 µg/mL (≈ 47.6 µM)
- MIC ([18]; w/o SMX): > 20 µg/mL
- Δ (Ti shift vs apo) (DfrA5 [11]; [21]): 3.7 °C
- Ti (DfrA5 [11]; ternary complex, +NADPH): 77.3 ± 4.7 °C
- Δ (Ti shift vs apo) (DfrA5 [11]; ternary complex, +NADPH): 11 °C
- solubility [19]: low
- MIC [20]: 20 µg/mL (≈ 47.6 µM)
